Measured values: ChEMBL document CHEMBL4387785, “Discovery of a C-8 hydroxychromene as a potent degrader of estrogen receptor alpha with improved rat oral exposure over GDC-0927” (Bioorg Med Chem Lett, 2019)

Legend:
[1] = in vitro; settings: human, liver microsomes
[2] = in vitro; settings: human, hepatocytes
[3] = in vitro; settings: rat, hepatocytes
[4] = in vitro; settings: rat, liver microsomes
[5] = in vivo; settings: rat, po, 5 mg/kg
[6] = in vitro; settings: dog, MDCK
[7] = in vivo; settings: rat, iv, 1 mg/kg
[8] = Dose normalized AUC in rat at 5 mg/kg, po administered as suspension; type: ADME, organism-based; settings: in vivo
[9] = Dose normalized AUC in rat at 1 mg/kg, po administered as suspension; type: ADME, organism-based; settings: in vivo
[10] = Oral bioavailability in rat at 1 mg/kg administered as suspension; type: ADME, organism-based; settings: in vivo

Work on CC1=C(c2ccc(F)cc2)[C@H](c2ccc(OCCN3CC(CF)C3)cc2)Oc2cc(F)c(O)cc21 yielded a CLhep predicted [1] of 8 mL/min/kg, a CLhep predicted [2] of 15 mL/min/kg and a CLhep predicted [3] of 28 mL/min/kg. The CLhep predicted [4] was 20 mL/min/kg.

CC1=C(c2cccc(O)c2)[C@H](c2ccc(OCCN3CC(CF)C3)cc2)Oc2ccc(O)cc21 gave a CLhep predicted [1] of 12 mL/min/kg, a CLhep predicted [2] of 16 mL/min/kg and a CLhep predicted [3] of 45 to 46 mL/min/kg. It also gave a bioavailability [5] of 10%, a Papp A→B [6] of 4.6 ×10⁻⁶ cm/s and a clearance [7] of 100 mL/min/kg. For the same molecule, the CLhep predicted [4] was 45 to 46 mL/min/kg and the AUC/dose [8] was 0.04 µM·h.

Work on CC1=C(c2ccc(F)cc2)[C@H](c2ccc(OCCN3CC(CF)C3)cc2)Oc2c(O)cccc21 yielded a CLhep predicted [1] of 9 mL/min/kg and a CLhep predicted [4] of 27 mL/min/kg.

Work on Oc1cccc(C2=Cc3cc(O)ccc3O[C@H]2c2ccc(OCCN3CC(CF)C3)cc2)c1 yielded a CLhep predicted [1] of 12 mL/min/kg, a CLhep predicted [2] of 17 mL/min/kg and a CLhep predicted [3] of 41 mL/min/kg. It also gave a CLhep predicted [4] of 36 mL/min/kg.

For CC1=C(c2ccc(F)cc2)[C@H](c2ccc(OCCN3CC(CF)C3)cc2)Oc2ccc(O)cc21, the CLhep predicted [1] was 10 mL/min/kg, the CLhep predicted [2] was 14 mL/min/kg and the CLhep predicted [3] was 31 mL/min/kg. It also gave a CLhep predicted [4] of 28 mL/min/kg.

CCC1=C(c2cccc(O)c2)[C@H](c2ccc(OCCN3CC(CF)C3)cc2)Oc2ccc(O)cc21 showed a CLhep predicted [1] of 12 mL/min/kg, a CLhep predicted [2] of 15 mL/min/kg and a CLhep predicted [3] of 40 mL/min/kg. The CLhep predicted [4] was 39 mL/min/kg.

For CC1=C(c2cccc(O)c2)[C@H](c2ccc(OCCN3CC(CF)C3)cc2)Oc2c(O)cccc21, the CLhep predicted [1] was 9 mL/min/kg, the CLhep predicted [2] was 13 mL/min/kg and the CLhep predicted [3] was 44 mL/min/kg. It also gave an AUC/dose [9] of 0.43 µM·h, a Papp A→B [6] of 2.4 ×10⁻⁶ cm/s and a clearance [7] of 18 mL/min/kg. The CLhep predicted [4] was 43 mL/min/kg and the bioavailability [10] was 30%.
